Test [1] deals with MIN6 cells expressing proinsulin-luciferase construct. Description: High-throughput luciferase secretion screen, proinsulin-luciferase reporter, 384-well. Type of test: cell-based, mouse. As to conditions: for Z-score / Z-score With Glucose / Z-score Without Glucose: luciferase secretion, 30 μM, 1 hour; for Z-score: 1600 compound screen, Z-score vs DMSO wells; for Z-score / Z-score With Glucose: 100 mg/dL glucose; for Z-score With Glucose / Z-score Without Glucose: repeated 1600-compound screen; for Z-score Without Glucose: absence of glucose. How it is done:
MIN6 and INS-1E cells were expanded to 80% confluence in their respective growth media, washed once in PBS and incubated for 1 hour at 37° C. in KRB without glucose. Cells were then dissociated, spun at 300 g×2 minutes, resuspended in fresh KRB without glucose and filtered through 40 μm mesh (Becton Dickenson®). Next, the cells were counted and diluted in KRB to 1×10^6 cells per mL, and glucose was added as required for each experiment. Cells were then seeded in 384-well format, 3×10^4 cells in 30 μL per well, using a Multidrop™ Combi device (Thermo Scientific®, Billerica, Mass.). Compounds from the Pharmakon 1600 Collection (Microsource Discovery Systems™, Gaylordsville, Conn.) were pinned into each well using a CyBio® Vario (CyBio®, Jena, Germany) to a final concentration of 30 μM, and the plates were then incubated for 1 hour at 37° C. The plates were then spun at 300 g×2 minutes and the supernatant transferred to a new 384-well plate. Coelenterazine substrate was then added to a final concentration of 20 μM and luciferase activity determined using a standard plate reader (Biotek®).
For the high-throughput screens, the Z-score of each test compound was calculated using the formula: […]
where x is the log-transformed, signal decay-adjusted luciferase signal from a compound-treated well, μ is the mean of the log-transformed luciferase signals from the DMSO-treated wells on the same plate, and a is the standard deviation of the log-transformed luciferase signals of the DMSO-treated wells across all plates (to allow for cross-plate comparison of compounds). Prior to calculating the Z-score, a row-based correction factor was applied to all luciferase readings to adjust for the rapid signal decay occurring during the course of each 384-well plate read. The signal decay was modeled as a logarithmic function (Microsoft® Excel) and then used to adjust each well's luciferase reading based on the corresponding row within the plate.
We performed a pilot chemical screen at a substimulatory glucose concentration (100 mg/dL) in MIN6 cells using a collection of 1600 known bioactive small molecules, with the sulfonylurea glipizide included as a positive control. […] Several commonly used drugs without known links to beta-cell function caused significant increases in luciferase secretion in our assay (compounds summarized in Table 1).
As there is a well-recognized need for glucose-dependent small-molecule agonists of insulin secretion, we subsequently evaluated whether our assay could be adapted to find such secretagogues. We repeated the 1600-compound screen in the presence and absence of a substimulatory glucose concentration (100 mg/dL).
(In a reporter assay the amount or activity of a reporter protein is the signal.)

For test [2], the system named is MIN6 mouse beta cell line. As to the kind of experiment: Luciferase secretion, preproamylin-Gaussia luciferase (PAG) reporter. Type of test: cell-based. As to conditions: 1 hour at the indicated glucose concentrations; 25 uM glipizide, 50 uM IBMX, 20 uM forskolin, 40 mM KCl, 20 uM PMA. How it is done: FIG. 4 is a graph showing the pre-proamylin-luciferase reporter in MIN6 cells responds as predicted to known insulin secretagogues. Cells were treated for 1 hour at the indicated glucose concentrations with either DMSO, 25 uM glipizide, 2.5 uM glucokinase activator (GKA), 50 uM 3-isobutyl-1-methylxanthine (IBMX), 20 uM forskolin, 40 mM potassium chloride (KCl), or 20 uM phorbol myristate acetate (PMA).
For standard secretion assays, MIN6 and INS-1E cells were plated in 96-well format at a density of 4×10^4 cells per well in 100 μL of their respective growth media and incubated overnight at 37° C. in 5% CO2 to allow attachment. Cells were washed once with PBS and incubated for 1 hour at 37° C. in sterile, 0.45 μm-filtered Krebs Ringer Buffer (KRB) containing 138 mM NaCl, 5.4 mM KCl, 2.6 mM MgCl2, 2.6 mM CaCl2, 5 mM NaHCO3, 10 mM HEPES and 5 g/L bovine serum albumin (Sigma®). The cells were then washed in KRB once and stimulated for 1 hour in 100 μL of fresh KRB containing varying amounts of glucose and compounds. The insulin concentration was determined using an insulin ELISA (ALPCO®) with the supplied protocol. Luciferase activity was determined from the same samples by adding the coelenterazine substrate (Nanolight®) to the supernatant to a final concentration of 20 μM and reading on a standard plate reader (Biotek™, Winooski, Vt.).
The preproamlyin constructs was introduced into the MIN6 mouse beta cell line (FIGS. 3A and 3B).

For test [3], the system named is Alpha TC1 mouse alpha cell line. As to the kind of experiment: Luciferase secretion, proglucagon-luciferase (G2) reporter in alpha cells. Type of test: cell-based. The following applies: glucose 0-300 mg/dL (0-16.7 mM). How it is done:
The preglucagon G^2 construct was introduced into the Alpha TC1 mouse alpha cell line. Cells were stimulated with IBMX, arginine, or potassium chloride (KCl) and varying amounts of glucose in the range of 0-300 mg/dL (0-16.7 mM). Luciferase activity of the supernatant was determined (FIG. 6).

For a further test, the system named is GLUTag mouse L-cell line. Description: Luciferase secretion, proglucagon-luciferase (G2) reporter in L cells. Type of test: cell-based. How it is done:
The proglucagon G^2 construct was also introduced into the GLUTag mouse L-cell line. Cells were stimulated with Forskolin/IBMX, KCl, glipizide, PMA, and L-glutamine. Luciferase activity of the supernatant was determined.

In turn, `CN(C)CC[C@@H](c1ccc(Cl)cc1)c1ccccn1` [(S)-chlorpheniramine] registered a Z-score in test [1] of 31.8. For the molecule `COc1c2ccoc2cc2oc(=O)ccc12` [Bergapten], in test [1], the “Z-score With Glucose” value is on record as 20.9 and the “Z-score Without Glucose” value is on record as 2.9. Consider `CCN(CC)CCNC(C(=O)OCCC(C)C)c1ccccc1` (stereo not drawn) [Camylofine], for which, in test [1], the Z-score is listed as 23.8, the “Z-score With Glucose” value stood at 4.7 and the “Z-score Without Glucose” value is recorded as 0.2.

Consider `COc1ccccc1OCCNCC(O)COc1cccc2[nH]c3ccccc3c12` (stereo not drawn) [Carvedilol], for which, in test [1], the “Z-score Without Glucose” value came out at 1.5. As to `Clc1ccc(Cn2c(CN3CCCC3)nc3ccccc32)cc1` [Clemizole], in test [1], the “Z-score With Glucose” value amounted to 12.2 and the “Z-score Without Glucose” value was 0.4. For the molecule `CC(=O)[C@@]1(O)CC[C@H]2[C@@H]3CCC4=CC(=O)CC[C@]4(C)[C@H]3CC[C@@]21C` [Hydroxyprogesterone], the “Z-score Δ” value in test [1] (difference of Z-score with and without glucose) turned out to be 15.6. Further, in test [1], the “Z-score With Glucose” value is 18.3 and the “Z-score Without Glucose” value turned out to be 2.7.

With `CC(C)Cn1c(=O)n(C)c(=O)c2[nH]cnc21` [IBMX, 3-isobutyl-1-methylxanthine], in test [2], the “luciferase activity (luminescence)” value is given as “increased luminescence in a dose-dependent manner”. Further, the “luciferase secretion (luciferase activity of the supernatant)” value in test [3] is reported as “no secretion of luciferase”.

`[Cl-].[K+]` [KCl, potassium chloride]: in test [2], the “luciferase activity (luminescence)” value is reported as “increased luminescence in a dose-dependent manner”. Moreover, the “luciferase secretion (luciferase activity of the supernatant)” value (in test [3]; in the test on GLUTag mouse L-cell line) was “secreted luciferase” in each case. With `NC(=O)CC[C@H](N)C(=O)O` [L-glutamine], the “luciferase secretion (luciferase activity of the supernatant)” value in the test on GLUTag mouse L-cell line is on record as “no secretion of luciferase”.

Molecule `C[C@@H]1CC(=O)NN=C1c1ccc(NN=C(C#N)C#N)cc1` [Levosimendan] had a Z-score in test [1] of 40.7. As for `Oc1ccc(OCc2ccccc2)cc1` [Monobenzone], in test [1], the Z-score turned out to be 38.7, the “Z-score With Glucose” value was 31.8 and the “Z-score Without Glucose” value is reported as 5.6.

For the molecule `CCN(CC)CCOC(=O)C(Cc1cccc2ccccc12)CC1CCCO1` (stereo not drawn) [Nafronyl], in test [1], the Z-score amounted to 25.4, the “Z-score With Glucose” value worked out at 17.8 and the “Z-score Without Glucose” value turned out to be 3.4.

As to `Cc1ccccc1C(OCCN(C)C)c1ccccc1` (stereo not drawn) [Orphenadrine], in test [1], the Z-score amounted to 27.4. On to `CCCCCCCCCCCCCC(=O)O[C@@H]1[C@@H](C)[C@@]2(O)[C@@H](C=C(CO)C[C@]3(O)C(=O)C(C)=C[C@@H]23)[C@@H]2C(C)(C)[C@]12OC(C)=O` [PMA, phorbol myristate acetate], for which the “luciferase activity (luminescence)” value in test [2] is “increased luminescence in a dose-dependent manner”. Further, in the test with GLUTag mouse L-cell line, the “luciferase secretion (luciferase activity of the supernatant)” value was “secreted luciferase”.

`CCCNCC(O)COc1ccccc1C(=O)CCc1ccccc1` (stereo not drawn) [Propafenone]: in test [1], the “Z-score With Glucose” value was found to be 10.5 and the “Z-score Without Glucose” value came out at 1.5.

Take `O=C(CCCN1CCC2(CC1)C(=O)NCN2c1ccccc1)c1ccc(F)cc1` [Spiperone]: in test [1], the “Z-score With Glucose” value is reported as 9.0 and the “Z-score Without Glucose” value was −2.8. The molecule `Nc1c2c(nc3ccccc13)CCCC2` [Tacrine] gave a Z-score in test [1] of 38.8. The molecule `Nc1nc(N)c2nc(-c3ccccc3)c(N)nc2n1` [Triamterene] returned a Z-score in test [1] of 76.3. Take `OC(CCN1CCCCC1)(c1ccccc1)C1CCCCC1` (stereo not drawn) [Trihexyphenidyl]: the Z-score in test [1] is given as 50.5. As to `N=C(N)NCCC[C@H](N)C(=O)O` [arginine], the “luciferase secretion (luciferase activity of the supernatant)” value in test [3] is “secreted luciferase”. For `Cc1cnc(C(=O)NCCc2ccc(S(=O)(=O)NC(=O)NC3CCCCC3)cc2)cn1` [glipizide], the luciferase secretion result in test [1] (screen in presence and absence of 100 mg/dL glucose) is given as “caused luciferase secretion regardless of the ambient glucose level”. The “luciferase activity (luminescence)” value in test [2] is listed as “did not increase luciferase activity”. In addition, the “luciferase secretion (luciferase activity of the supernatant)” value in the test on GLUTag mouse L-cell line was “no secretion of luciferase”.

The record behind these values is US10370697B2, “Propeptide-luciferase fusion proteins and methods of use thereof” (THE BROAD INSTITUTE, INC., priority 2011, dated 2019).
